This is an account of results in patent US9018173B2, “Materials and methods for suppressing inflammatory and neuropathic pain” (Indiana University Research and Technology Corp., priority 2010, dated 2015).

By IC50 is commonly meant the concentration at which inhibition is half-maximal.

Read-outs that look alike come from different tables or passages of the source. Residues, ends and D or L forms follow the SMILES beside them.

In series [1] the test system is capsaicin-induced meningeal blood flow changes. The settings on record: read-out: IC50 of percent inhibition of capsaicin-induced blood flow; dural application; versus averaged TAT-scramble; n=4-5.
The subject of series [2] is dorsal root ganglion neurons. Conditions: 10 μM, 12 h.
Series [3] concerns tail kinking and body contortion. The series can be described thus: Observation of side-effects after i.p. injection in mice. It is filed as in vivo. An excerpt: Referring now to FIG. 24. Biodistribution and side-effects of TAT-CBD3. […] Oxygenated blood was collected from a cardiac puncture. […] The 95% confidence limits are also indicated.
The possible effects of TAT-CBD3 on motor coordination, locomotor function, sedation (rotarod test) and hippocampal-dependent memory (Morris water-maze test) was investigated.

A further series concerns spatial memory. As to the kind of experiment: Morris water maze test of spatial/reference memory. It counts as in vivo, mice. Conditions: 10 mg/kg i.p., 1 h-7 d after administration. As to the method: The rotarod test for motor coordination was performed as described with slight modifications. Following i.p. injection of vehicle or peptides, mice were tested with three trials each of fast and slow acceleration. The Morris water maze test was used to test reference/spatial memory. Mice were trained prior to the i.p. injection of TAT-Scramble or TAT-CBD3 peptides for 4 consecutive days (4 trials/day). Performance was evaluated 3 days following injection. Morris water maze test of spatial/reference memory. The Morris water maze test was used to test spatial memory. The maze consisted of a plastic pool (100 cm in diameter and 60 cm in depth) filled with water to a depth of 26.5 cm, with a clear Plexiglas stand (10 cm in diameter and 26 cm in height [i.e., 0.5 cm below the water's surface]) used as the hidden goal platform. The mice were trained prior to the injection for 4 consecutive days (4 trials/day). For each daily block of four trials, the mice were placed in the pool facing the wall. Trials were initiated from each of the four possible start locations (north, east, south, west) in a randomized manner. A maximum of 60 sec was allowed for each mouse to find the hidden platform. […] Mice were excluded from the study if their average latency to locate the platform on day 4 of the trials was greater than 50 sec. […]

Series [4] has as its target CaV2.2 current density in hippocampal neurons (Rattus norvegicus, UniProt Q02294). The series can be described thus: Whole-cell patch-clamp Ca2+ currents in hippocampal neurons. It is filed as cell-based. Conditions: co-expression with CRMP-2 in hippocampal neurons; +10 mV. A general note: In patch-clamp work, channel activity is measured electrically.
Series [5] relates to CaV2.2 surface expression in CAD cells. The series can be described thus: CaV2.2 surface expression in CAD cells (immunocytochemistry, surface biotinylation). It is filed as cell-based. As to the method: Catecholamine A Differentiated (CAD) cells. CAD cells were grown at 37° C. and in 5% CO2 (Sarstedt, Newton, N.C.) in Ham's F12/EMEM medium (GIBCO, Grand Island, N.Y.), supplemented with 8% fetal bovine serum (FBS; Sigma, St. Louis, Mo.) and 1% penicillin/streptomycin ([…], 10,000 U/ml penicillin G sodium and 10,000 μg/ml streptomycin sulfate). Cells were passaged every 6-7 days at a 1:25 dilution.
Transient transfection. Adherent cultures were transfected with cDNAs using Lipofectamine 2000 (Invitrogen) as described previously. About 2-3% transfection efficiencies in hippocampal neurons was achieved routinely, 35-40% in DRG, and 75-80% in CAD cells transfected with this method. Typically, cultured cells were transfected with equal amounts of different cDNA constructs and experiments performed two days later.
Cell Surface Biotinylation. Biotinylation was performed as described. […]
Immunocytochemistry. […] Images were acquired on a Nikon Ti swept-field confocal microscope using a 60×, 1.4 NA lens and standard FITC/Texas red fluorescence cubes with a cooled Cascade 512B digital camera (Photometrics, Tucson, Ariz.). […]

Chain of CaV2.2 current density in hippocampal neurons (Q02294 whole entry): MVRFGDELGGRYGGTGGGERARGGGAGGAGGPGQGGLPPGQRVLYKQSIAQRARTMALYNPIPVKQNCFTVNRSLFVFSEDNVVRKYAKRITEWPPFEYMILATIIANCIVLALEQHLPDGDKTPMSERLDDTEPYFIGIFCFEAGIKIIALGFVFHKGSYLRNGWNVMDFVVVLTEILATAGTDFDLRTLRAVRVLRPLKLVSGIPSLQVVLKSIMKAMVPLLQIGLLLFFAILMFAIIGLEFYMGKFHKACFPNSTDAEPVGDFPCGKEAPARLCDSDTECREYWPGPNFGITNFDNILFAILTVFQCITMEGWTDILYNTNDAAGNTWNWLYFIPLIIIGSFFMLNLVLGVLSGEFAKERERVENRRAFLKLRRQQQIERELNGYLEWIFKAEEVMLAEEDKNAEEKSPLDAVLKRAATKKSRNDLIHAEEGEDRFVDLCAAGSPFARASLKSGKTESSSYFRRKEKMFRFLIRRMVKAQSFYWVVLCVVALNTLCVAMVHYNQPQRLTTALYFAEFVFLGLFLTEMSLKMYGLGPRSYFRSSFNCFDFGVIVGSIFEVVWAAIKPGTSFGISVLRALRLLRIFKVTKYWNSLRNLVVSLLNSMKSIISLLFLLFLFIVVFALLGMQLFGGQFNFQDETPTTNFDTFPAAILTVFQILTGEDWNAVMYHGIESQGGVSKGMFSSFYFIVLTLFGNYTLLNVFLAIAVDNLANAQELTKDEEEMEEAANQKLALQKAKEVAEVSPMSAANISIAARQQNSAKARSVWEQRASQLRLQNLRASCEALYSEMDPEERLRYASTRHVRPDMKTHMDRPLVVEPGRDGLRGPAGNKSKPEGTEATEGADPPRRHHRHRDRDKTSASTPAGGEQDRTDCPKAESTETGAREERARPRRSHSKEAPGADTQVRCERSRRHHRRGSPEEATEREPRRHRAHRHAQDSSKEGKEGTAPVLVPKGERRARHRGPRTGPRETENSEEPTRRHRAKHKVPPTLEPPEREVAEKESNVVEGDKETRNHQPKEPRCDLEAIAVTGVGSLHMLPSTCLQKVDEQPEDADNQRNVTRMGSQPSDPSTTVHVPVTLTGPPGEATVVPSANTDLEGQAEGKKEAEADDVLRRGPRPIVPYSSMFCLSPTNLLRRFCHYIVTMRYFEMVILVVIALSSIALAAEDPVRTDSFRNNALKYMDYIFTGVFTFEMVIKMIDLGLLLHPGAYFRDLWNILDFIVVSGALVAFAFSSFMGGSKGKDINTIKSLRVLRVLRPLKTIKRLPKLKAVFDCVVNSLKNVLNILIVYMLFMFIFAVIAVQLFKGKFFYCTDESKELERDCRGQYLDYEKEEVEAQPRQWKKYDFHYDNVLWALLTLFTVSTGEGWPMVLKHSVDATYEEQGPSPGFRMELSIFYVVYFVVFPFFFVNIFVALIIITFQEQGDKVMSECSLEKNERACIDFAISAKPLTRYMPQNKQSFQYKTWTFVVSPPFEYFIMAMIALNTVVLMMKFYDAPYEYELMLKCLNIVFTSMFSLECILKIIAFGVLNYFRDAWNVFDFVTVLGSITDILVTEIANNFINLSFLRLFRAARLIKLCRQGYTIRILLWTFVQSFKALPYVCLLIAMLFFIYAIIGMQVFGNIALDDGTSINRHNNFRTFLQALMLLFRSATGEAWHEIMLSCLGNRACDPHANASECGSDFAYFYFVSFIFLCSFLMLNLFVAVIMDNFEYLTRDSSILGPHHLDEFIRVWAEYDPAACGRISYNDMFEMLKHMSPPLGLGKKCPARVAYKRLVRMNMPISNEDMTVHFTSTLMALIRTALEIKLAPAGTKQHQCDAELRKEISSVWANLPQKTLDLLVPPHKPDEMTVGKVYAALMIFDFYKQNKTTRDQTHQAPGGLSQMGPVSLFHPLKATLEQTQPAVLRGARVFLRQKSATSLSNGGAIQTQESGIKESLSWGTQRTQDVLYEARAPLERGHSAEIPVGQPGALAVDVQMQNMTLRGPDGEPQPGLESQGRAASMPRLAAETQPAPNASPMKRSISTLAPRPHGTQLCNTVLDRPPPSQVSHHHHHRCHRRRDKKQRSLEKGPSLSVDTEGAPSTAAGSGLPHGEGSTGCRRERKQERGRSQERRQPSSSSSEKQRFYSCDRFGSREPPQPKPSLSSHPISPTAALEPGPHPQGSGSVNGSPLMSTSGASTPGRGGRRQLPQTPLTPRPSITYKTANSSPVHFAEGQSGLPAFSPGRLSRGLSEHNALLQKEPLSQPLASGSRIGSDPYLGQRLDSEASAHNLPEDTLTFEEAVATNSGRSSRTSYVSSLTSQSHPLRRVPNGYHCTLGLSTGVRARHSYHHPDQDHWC
Chain of CaV2.2 current density in hippocampal neurons (P54287 whole entry partner): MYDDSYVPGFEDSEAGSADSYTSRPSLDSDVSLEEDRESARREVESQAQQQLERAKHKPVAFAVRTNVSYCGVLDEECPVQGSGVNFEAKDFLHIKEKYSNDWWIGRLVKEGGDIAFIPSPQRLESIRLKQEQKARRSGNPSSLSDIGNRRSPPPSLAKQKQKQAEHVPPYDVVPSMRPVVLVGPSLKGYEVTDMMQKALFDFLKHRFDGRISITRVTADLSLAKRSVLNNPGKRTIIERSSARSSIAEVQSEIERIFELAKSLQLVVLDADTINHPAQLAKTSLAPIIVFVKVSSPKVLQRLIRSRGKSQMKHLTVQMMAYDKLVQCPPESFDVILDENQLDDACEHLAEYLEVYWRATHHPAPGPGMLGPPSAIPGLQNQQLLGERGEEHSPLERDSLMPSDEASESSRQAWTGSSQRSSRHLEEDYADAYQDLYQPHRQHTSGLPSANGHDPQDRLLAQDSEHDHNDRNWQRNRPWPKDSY
Chain of CaV2.2 current density in hippocampal neurons (P54290 25-944 partner limits assumed): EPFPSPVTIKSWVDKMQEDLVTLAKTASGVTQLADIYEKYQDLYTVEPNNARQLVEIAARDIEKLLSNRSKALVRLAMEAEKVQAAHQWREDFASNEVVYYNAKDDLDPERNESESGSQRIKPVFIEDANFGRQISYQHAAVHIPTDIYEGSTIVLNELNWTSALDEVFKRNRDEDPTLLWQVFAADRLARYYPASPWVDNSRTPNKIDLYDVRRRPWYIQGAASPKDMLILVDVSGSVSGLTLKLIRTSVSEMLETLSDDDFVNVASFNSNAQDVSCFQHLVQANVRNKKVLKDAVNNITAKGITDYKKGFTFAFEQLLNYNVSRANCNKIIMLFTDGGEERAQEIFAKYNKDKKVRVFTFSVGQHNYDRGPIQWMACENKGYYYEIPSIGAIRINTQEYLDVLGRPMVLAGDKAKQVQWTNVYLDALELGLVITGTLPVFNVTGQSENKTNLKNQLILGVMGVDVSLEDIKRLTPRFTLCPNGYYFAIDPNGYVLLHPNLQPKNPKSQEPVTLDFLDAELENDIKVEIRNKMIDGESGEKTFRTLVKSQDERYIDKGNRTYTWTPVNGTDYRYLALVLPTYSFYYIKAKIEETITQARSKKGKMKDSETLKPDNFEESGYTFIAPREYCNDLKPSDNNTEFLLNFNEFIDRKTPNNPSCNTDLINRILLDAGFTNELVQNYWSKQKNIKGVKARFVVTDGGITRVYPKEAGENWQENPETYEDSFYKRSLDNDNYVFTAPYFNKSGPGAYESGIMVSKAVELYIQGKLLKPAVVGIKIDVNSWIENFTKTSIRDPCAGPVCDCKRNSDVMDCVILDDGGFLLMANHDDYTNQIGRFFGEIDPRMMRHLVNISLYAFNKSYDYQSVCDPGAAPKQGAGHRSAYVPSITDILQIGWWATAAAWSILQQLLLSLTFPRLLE
Chain of CaV2.2 current density in hippocampal neurons (P54290 945-1091 partner limits assumed): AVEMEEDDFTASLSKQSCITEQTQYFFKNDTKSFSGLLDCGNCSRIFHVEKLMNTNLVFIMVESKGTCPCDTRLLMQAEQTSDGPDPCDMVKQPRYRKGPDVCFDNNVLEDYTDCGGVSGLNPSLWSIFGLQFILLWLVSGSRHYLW

Take `CC(C)C[C@H](NC(=O)CNC(=O)[C@H](CCCNC(=N)N)NC(=O)[C@@H]1CCCN1C(=O)[C@@H](NC(=O)CNC(=O)[C@H](CCCNC(=N)N)NC(=O)[C@H](CC(C)C)NC(=O)[C@H](CCC(=O)O)NC(=O)[C@H](C)NC(=O)[C@H](CC(C)C)NC(=O)[C@H](CCCNC(=N)N)NC(=O)[C@H](CO)NC(=O)[C@H](CCCNC(=N)N)NC(=O)[C@H](C)NC(=O)[C@H](CCCNC(=N)N)NC(=O)[C@H](CCCNC(=N)N)NC(=O)[C@H](CCCNC(=N)N)NC(=O)[C@H](CCC(N)=O)NC(=O)[C@H](CCCNC(=N)N)NC(=O)[C@H](CCCNC(=N)N)NC(=O)[C@H](CCCCN)NC(=O)[C@H](CCCCN)NC(=O)[C@H](CCCNC(=N)N)NC(=O)CNC(=O)[C@@H](N)Cc1ccc(O)cc1)C(C)C)C(=O)O` [TAT-CBD3] (H-YGRKKRRQRRRARSRLAELRGVPRGL-OH; N-terminus and C-terminus assumed): the IC50 in series [1] stood at 3.1 ± 1.1 µM. The “cell viability (MTT, absorbance at 490 nm)” value is on record as “without affecting cell viability” in series [2] and “does not affect cell viability” in series [2] (listed as TAT CBD3). For the same molecule, in series [3] (10 and 50 mg/kg), the “side-effects immediately following injection” value is “A single episode of kinking at the base of the tail and whole body contortion was observed in mice”. Also, in series [3] (n=7 each condition), the tail kinking episodes result was “only a single episode of tail kinking movement was observed in the mice”. Moreover, in series [3] (transient tail kinking and body contortion), the “dose giving mild motor impairment relative to dose required to reduce hypersensitivity in vivo” value is “more than 50 fold”. Further, the body contortion result in series [3] (up to 50 mg/kg, n=7) is given as “no body contortion was observed in mice”. In addition, in the series with spatial memory, the “coordination or spatial memory (Morris water maze)” value was “did not affect coordination or spatial memory”.

For ARSRLAELRGVPRGL (CBD3), the “CRMP-2-mediated increase in CaV2.2 current density” value in series [4] is “eliminated”. The “CaV2.2 localisation on co-expression” value in series [5] (co-expression of CaV2.2 with CBD3 in CAD cells) is on record as “almost complete retention of the channel in cytoplasmic aggregates”. Further, the “surface expression of co-expressed CaV2.2 (surface biotinylation)” value in series [5] (expressed in CAD cells) was “prevented surface expression”.
